# Measured values: ChEMBL document CHEMBL1127098, “Anticonvulsant activity of glycine-site NMDA antagonists. 1. 2-carboxyl prodrugs of 5,7-dichlorokynurenic acid” (Bioorg Med Chem Lett, 1993)
# How the values were obtained:
# Mus musculus [1] = experiment: Tested for anticonvulsant activity by the antagonism of audiogenic seizures in DBA/2 mice and number of mice protected from tonic seizure/number of mice tested at 250 mg/kg dose after 15 mins was reported (1 out of 8); format: functional
# Mus musculus [2] = experiment: Tested for the effective dose required for anticonvulsant activity when given intraperitoneally after 30 minutes in DBA/2 mice; format: functional; conditions: ip, 0.5 h
# Mus musculus [3] = experiment: Tested for anticonvulsant activity by the antagonism of audiogenic seizures in DBA/2 mice and number of mice protected from tonic seizure/number of mice tested at 250 mg/kg dose after 60 mins was reported (4 out of 8); format: functional
# Mus musculus [4] = experiment: Tested for anticonvulsant activity by the antagonism of audiogenic seizures in DBA/2 mice and number of mice protected from tonic seizure/number of mice tested at 250 mg/kg dose after 30 mins was reported (5 out of 8); format: functional
# Mus musculus [5] = experiment: Tested for anticonvulsant activity by the antagonism of audiogenic seizures in DBA/2 mice and number of mice protected from tonic seizure/number of mice tested at 250 mg/kg dose after 120 mins was reported (1 out of 8); format: functional
# Mus musculus [6] = experiment: Tested for the effective dose required for anticonvulsant activity when given intraperitoneally after 15 minutes in DBA/2 mice; format: functional; conditions: ip, 0.25 h
# [7] = Half-life at pH 7.4; format: ADME; conditions: buffer
# Mus musculus [8] = experiment: Tested for anticonvulsant activity by the antagonism of audiogenic seizures in DBA/2 mice and number of mice protected from tonic seizure/number of mice tested at 250 mg/kg dose after 30 mins was reported (8 out of 8); format: functional
# Mus musculus [9] = experiment: Tested for anticonvulsant activity by the antagonism of audiogenic seizures in DBA/2 mice and number of mice protected from tonic seizure/number of mice tested at 250 mg/kg dose after 15 mins was reported (8 out of 8); format: functional
# Mus musculus [10] = experiment: Tested for anticonvulsant activity by the antagonism of audiogenic seizures in DBA/2 mice and number of mice protected from tonic seizure/number of mice tested at 250 mg/kg dose after 60 mins was reported (5 out of 7); format: functional
# Mus musculus [11] = experiment: Tested for anticonvulsant activity by the antagonism of audiogenic seizures in DBA/2 mice and number of mice protected from tonic seizure/number of mice tested at 250 mg/kg dose after 120 mins was reported (2 out of 8); format: functional
# Mus musculus [12] = species on record: Mus musculus; experiment: Tested for the anticonvulsant activity by the antagonism of the audiogenic seizures in DBA/2 mice after 30 minutes; format: functional; conditions: 0.5 h
# Mus musculus [13] = experiment: Tested for anticonvulsant activity by the antagonism of audiogenic seizures in DBA/2 mice and number of mice protected from tonic seizure/number of mice tested at 250 mg/kg dose after 60 mins was reported (7 out of 8); format: functional
# Mus musculus [14] = experiment: Tested for anticonvulsant activity by the antagonism of audiogenic seizures in DBA/2 mice and number of mice protected from tonic seizure/number of mice tested at 250 mg/kg dose after 120 mins was reported (1 out of 7); format: functional
# Mus musculus [15] = experiment: Tested for anticonvulsant activity by the antagonism of audiogenic seizures in DBA/2 mice and number of mice protected from tonic seizure/number of mice tested at 250 mg/kg dose after 60 mins was reported (1 out of 7); format: functional
# Mus musculus [16] = experiment: Tested for anticonvulsant activity by the antagonism of audiogenic seizures in DBA/2 mice and number of mice protected from tonic seizure/number of mice tested at 250 mg/kg dose after 30 mins was reported (7 out of 7); format: functional
# Mus musculus [17] = experiment: Tested for anticonvulsant activity by the antagonism of audiogenic seizures in DBA/2 mice and number of mice protected from tonic seizure/number of mice tested at 250 mg/kg dose after 15 mins was reported (7 out of 7); format: functional
# Mus musculus [18] = experiment: Tested for anticonvulsant activity by the antagonism of audiogenic seizures in DBA/2 mice and number of mice protected from tonic seizure/number of mice tested at 250 mg/kg dose after 60 mins was reported (3 out of 8); format: functional
# Mus musculus [19] = experiment: Tested for anticonvulsant activity by the antagonism of audiogenic seizures in DBA/2 mice and number of mice protected from tonic seizure/number of mice tested at 250 mg/kg dose after 15 mins was reported (0 out of 8); format: functional
# Mus musculus [20] = experiment: Tested for anticonvulsant activity by the antagonism of audiogenic seizures in DBA/2 mice and number of mice protected from tonic seizure/number of mice tested at 250 mg/kg dose after 120 mins was reported (3 out of 9); format: functional
# Mus musculus [21] = experiment: Tested for anticonvulsant activity by the antagonism of audiogenic seizures in DBA/2 mice and number of mice protected from tonic seizure/number of mice tested at 250 mg/kg dose after 30 mins was reported (1 out of 8); format: functional
# Mus musculus [22] = experiment: Tested for the effective dose required for anticonvulsant activity when given intraperitoneally; format: functional; conditions: ip
# Mus musculus [23] = experiment: Tested for anticonvulsant activity by the antagonism of audiogenic seizures in DBA/2 mice and number of mice protected from tonic seizure/number of mice tested at 250 mg/kg dose after 30 mins was reported (0 out of 8); format: functional
# Mus musculus [24] = experiment: Tested for anticonvulsant activity by the antagonism of audiogenic seizures in DBA/2 mice and number of mice protected from tonic seizure/number of mice tested at 250 mg/kg dose after 60 mins was reported (2 out of 8); format: functional
# Mus musculus [25] = experiment: Tested for anticonvulsant activity by the antagonism of audiogenic seizures in DBA/2 mice and number of mice protected from tonic seizure/number of mice tested at 250 mg/kg dose after 120 mins was reported (0 out of 8); format: functional
# Mus musculus [26] = experiment: Tested for anticonvulsant activity by the antagonism of audiogenic seizures in DBA/2 mice and number of mice protected from tonic seizure/number of mice tested at 250 mg/kg dose after 15 mins was reported (5 out of 7); format: functional
# Mus musculus [27] = experiment: Tested for anticonvulsant activity by the antagonism of audiogenic seizures in DBA/2 mice and number of mice protected from tonic seizure/number of mice tested at 250 mg/kg dose after 120 mins was reported (3 out of 7); format: functional
# Mus musculus [28] = experiment: Tested for anticonvulsant activity by the antagonism of audiogenic seizures in DBA/2 mice and number of mice protected from tonic seizure/number of mice tested at 250 mg/kg dose after 30 mins was reported (7 out of 8); format: functional
# Mus musculus [29] = experiment: Tested for anticonvulsant activity by the antagonism of audiogenic seizures in DBA/2 mice and number of mice protected from tonic seizure/number of mice tested at 250 mg/kg dose after 60 mins was reported (5 out of 8); format: functional
# Mus musculus [30] = experiment: Tested for anticonvulsant activity by the antagonism of audiogenic seizures in DBA/2 mice and number of mice protected from tonic seizure/number of mice tested at 250 mg/kg dose after 30 mins was reported (1 out of 6); format: functional
# Mus musculus [31] = experiment: Tested for anticonvulsant activity by the antagonism of audiogenic seizures in DBA/2 mice and number of mice protected from tonic seizure/number of mice tested at 250 mg/kg dose after 120 mins was reported (0 out of 6); format: functional
# Mus musculus [32] = experiment: Tested for anticonvulsant activity by the antagonism of audiogenic seizures in DBA/2 mice and number of mice protected from tonic seizure/number of mice tested at 250 mg/kg dose after 15 mins was reported (4 out of 8); format: functional
# Mus musculus [33] = experiment: Tested for anticonvulsant activity by the antagonism of audiogenic seizures in DBA/2 mice and number of mice protected from tonic seizure/number of mice tested at 250 mg/kg dose after 60 mins was reported (1 out of 6); format: functional
structure (smiles),measurement,setting,value
CN(C)CCNC(=O)c1cc(O)c2c(Cl)cc(Cl)cc2n1,No. of mouse protected,Mus musculus [1],1
same,ED50,Mus musculus [2],303 mg/kg
same,No. of mouse protected,Mus musculus [3],4
same,No. of mouse protected,Mus musculus [4],5
same,No. of mouse protected,Mus musculus [5],1
CCN(CC)CCOC(=O)c1cc(O)c2c(Cl)cc(Cl)cc2n1,ED50,Mus musculus [6],98 mg/kg
same,half-life,[7],22 min
same,ED50,Mus musculus [2],171 mg/kg
same,No. of mouse protected,Mus musculus [8],8
same,No. of mouse protected,Mus musculus [9],8
same,No. of mouse protected,Mus musculus [5],1
same,No. of mouse protected,Mus musculus [10],5
CC(CN(C)C)OC(=O)c1cc(O)c2c(Cl)cc(Cl)cc2n1 (stereo unspecified),ED50,Mus musculus [6],62 mg/kg
same,No. of mouse protected,Mus musculus [11],2
same,No. of mouse protected,Mus musculus [8],8
same,No. of mouse protected,Mus musculus [9],8
same,ED50,Mus musculus [12],138 mg/kg
same,No. of mouse protected,Mus musculus [13],7
CC(C)N(CCOC(=O)c1cc(O)c2c(Cl)cc(Cl)cc2n1)C(C)C,ED50,Mus musculus [6],152 mg/kg
same,No. of mouse protected,Mus musculus [14],1
same,No. of mouse protected,Mus musculus [15],1
same,No. of mouse protected,Mus musculus [16],7
same,No. of mouse protected,Mus musculus [17],7
O=C(OCCN1CCOCC1)c1cc(O)c2c(Cl)cc(Cl)cc2n1,No. of mouse protected,Mus musculus [18],3
same,No. of mouse protected,Mus musculus [19],0
same,No. of mouse protected,Mus musculus [20],3
same,No. of mouse protected,Mus musculus [21],1
O=C(O)c1cc(O)c2c(Cl)cc(Cl)cc2n1,ED50,Mus musculus [22],250 mg/kg
same,No. of mouse protected,Mus musculus [23],0
O=C(NCCN1CCOCC1)c1cc(O)c2c(Cl)cc(Cl)cc2n1,No. of mouse protected,Mus musculus [1],1
same,No. of mouse protected,Mus musculus [24],2
same,No. of mouse protected,Mus musculus [23],0
same,No. of mouse protected,Mus musculus [25],0
CN(C)CCCOC(=O)c1cc(O)c2c(Cl)cc(Cl)cc2n1,No. of mouse protected,Mus musculus [26],5
same,No. of mouse protected,Mus musculus [24],2
same,No. of mouse protected,Mus musculus [27],3
same,No. of mouse protected,Mus musculus [28],7
O=C(OCCN1CCCC1)c1cc(O)c2c(Cl)cc(Cl)cc2n1,ED50,Mus musculus [6],128 mg/kg
same,No. of mouse protected,Mus musculus [9],8
same,No. of mouse protected,Mus musculus [29],5
same,No. of mouse protected,Mus musculus [28],7
same,No. of mouse protected,Mus musculus [25],0
C[N+](C)(C)CCNC(=O)c1cc(O)c2c(Cl)cc(Cl)cc2n1.[I-],No. of mouse protected,Mus musculus [30],1
same,No. of mouse protected,Mus musculus [31],0
same,No. of mouse protected,Mus musculus [32],4
same,No. of mouse protected,Mus musculus [33],1
